According to patent publication US20250186397A1, “COMPOUNDS FOR THE USE IN THE TREATMENT OF MOOD DISORDERS” (Kanna Health Ltd, priority 2022, published 2025):
Where two headings read alike, the source gives them in different places.

Tests used:
[1] = target: human recombinant PDE-4B1 (Homo sapiens, UniProt Q07343); experiment: PDE4-B1 assay (SPA); type: biochemical; settings: human recombinant enzyme, 450 nM cAMP
Procedure: (§1) Test compounds (conc range), reference compound or vehicle control were added to assay buffer containing (in mM); Tris/HCl, pH 7.4 (40), MgCl2 (8) and EGTA/NaOH (1.7), containing 450 nM cAMP (450 nM) and 0.25 μCi (PDE-4B1) or 0.0125 μCi (PDE-4D2) [^3H] CAMP. 20 mins after addition of human recombinant PDE-4B1 (1.2 IEU) or PDE-4D2 (1.5 IEU), SPA beads were added and incubated at 22° C. for a further 30 mins. [^3H]5′AMP was quantified by a standard scintillation counting method.
(§2) Data were expressed as the mean of two technical replicates for each data point, and percent inhibition calculated relative to maximum inhibition observed in the presence of the reference comparator rolipram for PDE-4 assays, and imipramine for serotonin assays.

[2] = target: human recombinant PDE-4D2 (Homo sapiens, UniProt Q08499); experiment: PDE4-D2 assay (SPA); type: biochemical
Sequence of human recombinant PDE-4D2 (Q08499 303-809 limits assumed): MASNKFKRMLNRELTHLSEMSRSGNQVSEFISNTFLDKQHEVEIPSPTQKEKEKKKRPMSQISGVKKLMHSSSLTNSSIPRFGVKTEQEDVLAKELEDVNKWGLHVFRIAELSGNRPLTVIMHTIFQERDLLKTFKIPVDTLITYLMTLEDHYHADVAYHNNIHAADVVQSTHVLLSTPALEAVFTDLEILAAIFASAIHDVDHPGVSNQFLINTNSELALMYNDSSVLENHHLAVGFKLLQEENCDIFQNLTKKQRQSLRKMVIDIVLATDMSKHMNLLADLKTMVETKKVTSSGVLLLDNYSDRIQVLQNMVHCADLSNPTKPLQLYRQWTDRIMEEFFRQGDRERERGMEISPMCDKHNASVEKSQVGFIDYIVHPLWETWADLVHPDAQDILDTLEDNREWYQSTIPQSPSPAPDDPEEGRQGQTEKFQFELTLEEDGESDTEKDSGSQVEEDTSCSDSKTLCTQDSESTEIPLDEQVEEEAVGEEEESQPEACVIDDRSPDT
Procedure: as §1, §2

zebrafish = settings: isolated alkaloids, Maphanga et al., 2022; cited from earlier work
in vivo = settings: male, C57BI/6J, mouse, ip, 10 mg/kg
Procedure: Groups of male C57BI/6J mice received a single administration of test compound (10 mg/kg; i.p.) in methylcellulose (0.5% w/v).
Three mice from each dose group were subject to cardiac puncture under general anaesthesia at 0.25, 0.50, 1.00, 2.00, 4.00, 7.00 and 24.0 hours post-dose and plasma samples generated for application of standard LC-MS/MS bioanalytical methods.
Quantitation of compound concentration was derived from reference calibration data. Pharmacokinetic data were derived from serial plasma concentrations.

[3] = target: T1, human serotonin transporter (Homo sapiens, UniProt P31645); experiment: SERT assay, [3H] serotonin uptake in transfected CHO cells; type: cell-based; settings: CHO cells with human serotonin transporter, 180 min
T1 construct: expressed in transfected cells; host or cells: CHO cells
T1 sequence (P31645 whole entry): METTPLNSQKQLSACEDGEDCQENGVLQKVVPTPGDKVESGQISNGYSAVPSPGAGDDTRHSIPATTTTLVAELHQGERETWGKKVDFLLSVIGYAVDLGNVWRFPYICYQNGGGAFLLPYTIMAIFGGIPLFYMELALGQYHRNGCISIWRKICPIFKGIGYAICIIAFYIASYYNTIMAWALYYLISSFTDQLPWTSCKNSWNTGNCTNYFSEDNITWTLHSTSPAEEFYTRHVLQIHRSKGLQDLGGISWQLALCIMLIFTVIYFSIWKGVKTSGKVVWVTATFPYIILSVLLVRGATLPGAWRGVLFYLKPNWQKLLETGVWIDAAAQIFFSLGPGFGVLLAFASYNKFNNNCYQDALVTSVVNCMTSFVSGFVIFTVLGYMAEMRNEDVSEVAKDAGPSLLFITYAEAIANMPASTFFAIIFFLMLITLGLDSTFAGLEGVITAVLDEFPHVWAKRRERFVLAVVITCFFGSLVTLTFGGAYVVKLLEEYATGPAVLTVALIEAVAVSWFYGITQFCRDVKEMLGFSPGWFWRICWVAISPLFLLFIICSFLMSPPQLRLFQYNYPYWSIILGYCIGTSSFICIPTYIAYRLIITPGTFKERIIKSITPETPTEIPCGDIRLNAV
Procedure: Test compounds (conc range), reference compound or vehicle control were incubated for 180 min at room temperature with CHO cells stably transfected with the human serotonin transporter (5×10^3 cells/well) with 0.15 μM [3H] serotonin in the presence or absence of the test or reference compound in buffer containing (in mM); Tris/HCl (pH 7.4) (5), HEPES/Tris (7.5), NaCl (120), KCl (5.4), CaCl2) (1.2), MgSO4 (1.2), Glucose (5) and ascorbic acid (1). Following incubation, [3H] serotonin uptake was quantified by a standard scintillation counting method.
as §2

C57B6J mice [4] = experiment: Female urine sniffing test after chronic mild unpredictable stress; type: in vivo; settings: 60 minutes pre-test; for time sniffing female estrous urine: relative to vehicle
Procedure: (§3) FIG. 2. Effect of mesembrenol (0.3, 1 and 3 mg/kg, i.p.) administered 60 minutes pre-test on preference to examine the female estrous urine treat following chronic mild unpredictable stress. Data represents total time (sec) engaged in sniffing and investigating the urine soaked cotton tip during a 3 minute trial period. Analysis by one-way ANOVA followed by multiple comparisons with Sidak's correction; **-****P<0.01-0.0001 vs stress vehicle (n=8).
as §3, with “3.” for “2.”, “mesembranol” for “mesembrenol”
(§4) C57BI6J mice, will be housed in groups of 4, will be exposed to a variety of mild stressors for a period of four weeks.
(§5) The stressors will include wet bedding, 40° cage tilt, introduction of intruder mouse from different experimental cohort, food deprivation, water deprivation, overnight illumination, and presence of soiled rat bedding as an aversive odour. These stressors are randomly scheduled over each weekly period and repeated for the duration of the experiment. Each stressor is applied for a period of 8-16 hours.
(§6) A cohort of depression-like phenotype in adult male C57B6J mice is produced by employing a four-week mild unpredictable stress protocol.
Following two weeks treatment with imipramine, or acute treatment with vehicle or the test compounds (mesembrenol and mesembranol), the reversal of stress induced depression-like behaviour was determined using a measure of anhedonia, female urine sniffing preference.
The test compounds were evaluated at three doses with comparison made to vehicle control, no stress control and the reference control imipramine (n=8). […]
Animals are subsequently transferred to individual cages and exposed for a 3 minute period to a cotton tipped applicator which is dipped in water and attached to the side of the cage. The time each animal spends sniffing the water-impregnated cotton tipped applicator is scored manually by the observer who is blinded to group treatments.
Following a 45 minute interval in the absence of a cotton tipped applicator, an applicator dipped in the urine of a female mice in oestrus is presented and the time spent sniffing the urine-impregnated cotton bud is recorded over a 3 minute period. […]
Testing is conducted under low level red light and behaviour is scored remotely via a video camera placed above the cage.

C57B6J mice [5] = experiment: Sucrose preference test after chronic mild unpredictable stress; type: in vivo; settings: relative to stress vehicle; for sucrose preference: all time points tested
Procedure: (§7) FIG. 4. Effect of mesembrenol (0.3, 1 and 3 mg/kg, i.p.) administered 30 minutes pre-test on sucrose preference following chronic mild unpredictable stress. Data represents cumulative % preference for sucrose solution over water at the 4, 8, 12 and 24 hour timepoints of the test period. Analysis by repeat measures two-way ANOVA followed by multiple comparisons with Dunnet's correction; *-****P<0.05-0.0001 vs stress vehicle (n=8).
as §7, with “5.” for “4.”, “mesembranol” for “mesembrenol”, “by” for “by repeat measures”, “Sidak's” for “Dunnet's”, “*-*P<0.001-0.0001” for “*-****P<0.05-0.0001”
as §4, §5, §6
An additional readout was used to assess antidepressant-like activity of the test compounds using a further measure of anhedonia, the sucrose preference test.
During this test, mice are housed individually and provided, for 24 hours, a free choice between two bottles, one with 1% sucrose solution and another with filtered tap water.
To prevent possible effects of side preference in drinking behaviour, the position of the bottles is swapped after 12 hours. The consumption of water and sucrose solution is estimated simultaneously in control and experimental groups by weighing the bottles. The sucrose intake is calculated as an amount of consumed sucrose in mg per gram body weight. The preference for sucrose is calculated as a percentage of consumed sucrose solution of the total amount of liquid drunk.
A decrease of sucrose preference below 65%, is taken as the criterion for anhedonia. […] In addition, mice with a lower than 65% sucrose preference in other models display features of anhedonia and depression, such as an increased threshold of intracranial self-stimulation and sleep disturbances.
The effect of 2 weeks treatment with imipramine or the acute effect of the test compound or vehicle is determined over this 24 hour period.

C57B6J mice [6] = experiment: Forced swim test after chronic mild unpredictable stress; type: in vivo; settings: 3 mg/kg i.p., 30 minutes pre-test, relative to vehicle
Procedure: (§8) FIG. 6. Effect of mesembrenol (0.3, 1 and 3 mg/kg, i.p.) administered 30 minutes pre-test on chronic mild unpredictable stress induced depression phenotype in the forced swim test. Data represents (A) latency to immobility (sec) and (B) total time immobile in the four minute evaluation phase of the procedure. Analysis by one-way ANOVA followed by multiple comparisons with Sidak's and Dunn's correction; **-****P<0.01-0.0001 vs stress vehicle (n=8).
as §8, with “7.” for “6.”, “mesembranol” for “mesembrenol”, “Sidak's” for “Sidak's and Dunn's”, “***-****P<0.001-0.0001” for “**-****P<0.01-0.0001”
as §4, §5, §6
The effect of treatment with the test compounds on chronic mild stress induced immobility in the forced swim test was tested to establish antidepressant-like activity.
Following the 24 hour sucrose preference test, animals are treated again with the test compound, imipramine or vehicle. Animals are individually placed in clear Plexiglas cylinders (25 cm high; 10 cm in diameter) which are filled to a depth of 15 cm with water at 22-25° C.
Testing is conducted under low level red light and behaviour recorded over a 6 minute period using a video camera placed above the cylinder. During the test the animals are placed in the cylinder and allowed to habituate for two minutes before the cumulative duration of time spent immobile is determined over the following 4 minutes. Latency to immobility is recorded.
Movements necessary for the animal to maintain its head above water will not be scored as activity.

C57B6J mice [7] = experiment: Elevated plus maze after chronic mild unpredictable stress; type: in vivo
Procedure: (§9) FIG. 8. Effect of mesembrenol (0.3, 1 and 3 mg/kg, i.p.) administered 30 minutes pre-test on chronic mild unpredictable stress induced anxiety phenotype in the elevated plus maze. Data represents (A) latency to open arm entry (sec), (B) number of open arm entries (a.u.) and (C) total time in open arms of the apparatus during the ten minute procedure. Analysis by one-way ANOVA followed by multiple comparisons with Dunn's and Sidak's correction; *-**** P<0.05-0.0001 vs stress vehicle (n=8).
as §9, with “9.” for “8.”, “mesembranol” for “mesembrenol”
as §4, §5, §6
Finally, the effect of the test compounds on chronic unpredictable mild stress anxiogenic phenotype in the elevated plus-maze to determine anxiolytic-like activity.
The apparatus consists of 4 raised flat runways extending from a central platform raised 1 m above the floor of a 2 m wide water maze (prevents escape in the rare event of an animal falling from the apparatus). Two arms have enclosed sides while the others are open.
The mouse version of the apparatus employs maze arms of 30 cm length and 6 cm width, where the enclosed arms have walls 30 cm high. The room is lit with low level indirect lighting.
Animals are allowed to freely explore the apparatus over a 10 minute trial with remote video analysis capturing the pattern of animal movement. The time animals spend exploring the open arms of the maze during the trial is inversely related to the level of stress/anxiety felt by the animal.
Endpoints recorded are the latency (sec) to enter open arms of the maze, total number of open arm entries (a.u.) and total time (sec) spent in the open arms of the plus-maze.

[8] = 3 mg/kg i.p., mesembrenol p<0.001, mesembranol p<0.01
[9] = 3 mg/kg i.p., 30 minutes pre-test, relative to vehicle

Sequence of human recombinant PDE-4B1 (Q07343 whole entry): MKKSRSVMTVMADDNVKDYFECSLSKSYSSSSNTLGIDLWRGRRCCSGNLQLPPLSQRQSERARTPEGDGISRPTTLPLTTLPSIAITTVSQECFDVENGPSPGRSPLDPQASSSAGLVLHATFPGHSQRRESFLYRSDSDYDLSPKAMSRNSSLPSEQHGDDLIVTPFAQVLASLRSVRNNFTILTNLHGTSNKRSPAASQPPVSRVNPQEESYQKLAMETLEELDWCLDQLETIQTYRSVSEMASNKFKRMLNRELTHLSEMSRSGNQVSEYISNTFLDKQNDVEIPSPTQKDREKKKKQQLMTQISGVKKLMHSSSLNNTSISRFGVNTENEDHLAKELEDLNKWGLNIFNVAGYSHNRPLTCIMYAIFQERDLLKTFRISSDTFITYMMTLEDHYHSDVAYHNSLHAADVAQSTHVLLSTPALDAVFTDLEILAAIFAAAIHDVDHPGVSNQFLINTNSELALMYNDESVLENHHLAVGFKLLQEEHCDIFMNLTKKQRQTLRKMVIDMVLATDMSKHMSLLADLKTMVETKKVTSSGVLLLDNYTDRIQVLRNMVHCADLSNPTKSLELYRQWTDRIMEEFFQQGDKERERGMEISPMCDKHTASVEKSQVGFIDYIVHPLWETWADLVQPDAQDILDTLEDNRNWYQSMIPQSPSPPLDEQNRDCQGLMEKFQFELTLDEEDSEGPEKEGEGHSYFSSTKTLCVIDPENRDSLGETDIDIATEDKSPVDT

SMILES	IC50 [1] [µM]	effect in zebrafish model of anxiety (zebrafish)	AUC(0-inf) (in vivo) [ng·h/mL]	Cmax (in vivo) [ng/mL]	Tmax (in vivo) [min]	half-life (in vivo) [min]	IC50 [3] [µM]	time sniffing female estrous urine (C57B6J mice [4]; [8])	sucrose preference (C57B6J mice [5]; 3 mg/kg i.p.)	immobility time (C57B6J mice [6])	latency to immobility (C57B6J mice [6])	time spent in the open arms (C57B6J mice [7]; [9])	IC50 [2] [µM]	other results
CN(C)CCCN1c2ccccc2CCc2ccccc21 [Imipramine, reference compound]	1.6	–	–	–	–	–	–	–	–	–	–	–	–	IC50 ([2]; human recombinant enzyme, 450 nM cAMP, read-out: IC50 PDE-4D2): 0.144 to 0.3 µM
COc1ccc([C@@]23C=CC(=O)C[C@@H]2N(C)CC3)cc1OC [mesembrenone]	–	anxiolytic-like effect	–	–	–	–	–	–	–	–	–	–	–	–
COc1ccc(C23C=CC(O)CC2N(C)CC3)cc1OC (centres unmarked) [Mesembrenol]	27.6	anxiolytic-like effect	352	503	16	26.3	0.462	significant increase	significant increase	significant reduction	significant increase	significant increase	3.91	time sniffing female estrous urine (C57B6J mice [4]; 1 mg/kg i.p., mesembrenol p<0.01): significant increase; time sniffing female estrous urine, dose response (C57B6J mice [4]; 0.3, 1 and 3 mg/kg i.p., relative to stress vehicle): dose dependent increase; sucrose preference (C57B6J mice [5]; 1 mg/kg i.p.): significant increase; sucrose preference, dose response (C57B6J mice [5]; 0.3, 1 and 3 mg/kg i.p., 30 minutes pre-test, all time points (4, 8, 12, 24 hour)): dose dependent increase; time spent in the open arms (C57B6J mice [7]; 1 mg/kg i.p., 30 minutes pre-test, relative to vehicle): significant increase; number of open arm entries (C57B6J mice [7]; 0.3, 1 and 3 mg/kg i.p., versus the vehicle group): no change
COc1ccc(C23CCC(O)CC2N(C)CC3)cc1OC (centres unmarked) [Mesembranol, 3a-(3,4-dimethoxyphenyl)-1-methyl-3,4,5,6,7,7a-hexahydro-2H-indol-6-ol]	8.41	anxiolytic-like effect	649	834	18	21.8	0.143	significant increase	statistically significant increase	significant reduction	no changes	significant increase	9.84	number of open arm entries (C57B6J mice [7]; [9]): significant increase
COc1ccc([C@@]23CCC(=O)C[C@@H]2N(C)CC3)cc1OC [mesembrine]	–	anxiolytic-like effect	–	–	–	–	–	–	–	–	–	–	–	–
COc1ccc(C2CNC(=O)C2)cc1OC1CCCC1 (centres unmarked) [Rolipram, reference compound]	–	–	–	–	–	–	0.0232	–	–	–	–	–	–	–
